Source: patent US11161819B2, “Substituted tetrahydroisoquinoline compounds useful as GPR120 agonists” (Merck Sharp & Dohme Corp., priority 2016, dated 2021)

Molecular target: T1, human GPR120 (Homo sapiens, UniProt Q5NUL3)
T1 construct: expressed in transfected cells
T1 sequence (Q5NUL3 1-361): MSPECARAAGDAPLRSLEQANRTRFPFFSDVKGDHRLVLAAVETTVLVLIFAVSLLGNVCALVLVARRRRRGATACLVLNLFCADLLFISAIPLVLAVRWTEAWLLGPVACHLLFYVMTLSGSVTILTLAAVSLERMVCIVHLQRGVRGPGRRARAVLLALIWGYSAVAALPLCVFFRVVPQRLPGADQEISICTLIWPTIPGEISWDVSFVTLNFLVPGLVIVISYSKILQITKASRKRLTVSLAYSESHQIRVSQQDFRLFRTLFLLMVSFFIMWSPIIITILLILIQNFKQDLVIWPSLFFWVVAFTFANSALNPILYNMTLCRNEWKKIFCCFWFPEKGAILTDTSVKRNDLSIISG
Assay: Human GPR120 IP1 Assay (inositol phosphate turnover, CisBio IP-One kit)
Assay type: cell-based
Conditions: IP1 accumulation in CHO-K1 cells stably expressing the short form of human GPR120; 60 min compound incubation; 4-parameter fit; read-out: hGPR120 EC50
Summary of the method: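 CHO-K1 cells stably expressing short-form human GPR120 were stimulated with compounds for 60 minutes at 37 degrees in stimulation buffer. IP1 accumulation measured by HTRF competitive immunoassay (665/620 nm ratio) against an IP1 standard curve, normalized to a reference compound; EC50 from 4-parameter fit.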

| Structure (SMILES) | EC50 [nM] |
| --- | --- |
| O=C(O)CCc1ccc2c(c1)CCN(c1cc(Oc3ccc(F)cn3)cc(C(F)F)c1F)C2 [Example 35, 3-(2-{3-(difluoromethyl)-2-fluoro-5-[(5-fluoropyridin-2-yl)oxy]phenyl}-1,2,3,4-tetrahydroisoquinolin-6-yl) propanoic acid] | 312 |
| COc1cc(C#N)c(N2CCc3cc(CCC(=O)O)ccc3C2)cc1OC1CCC1 [Example 42, 3-{2-[2-cyano-5-(cyclobutyloxy)-4-methoxyphenyl]-1,2,3,4-tetra-hydroisoquinolin-6-yl}propanoic acid] | 798 |
| O=C(O)[C@@H]1C[C@H]1c1ccc2c(c1)CCN(c1cc(OC(F)(F)F)ccc1F)C2 [Example 87, (1R,2R)-2-{2-[2-fluoro-5-(trifluoro-methoxy)phenyl]-1,2,3,4-tetra hydroisoquinolin-6-yl}cyclo-propane carboxylic acid] | 74 |
| CC1c2ccc(CCC(=O)O)cc2CCN1c1cc(OC2CCC2)ccc1F (stereo not shown) [Example 39, 3-{2-[5-(cyclobutyloxy)-2-fluorophenyl]-1-methyl-1,2,3,4-tetra-hydroisoquinolin-6-yl}propanoic acid] | 417 |
| O=C(O)CCc1ccc2c(c1F)CCN(c1cc(OC(F)(F)F)cc(Cl)c1F)C2 [Example 65, 3-{2-[3-chloro-2-fluoro-5-(trifluoromethoxy)phenyl]-5-fluoro-1,2,3,4-tetra-hydroisoquinolin-6-yl} propanoic acid] | 37 |
| CC(CC(=O)O)c1ccc2c(c1)CCN(c1cc(OC(F)(F)F)ccc1F)C2 (stereo not shown) [Example 7, 3-(2-(2-fluoro-5-(trifluoromethoxy)phenyl)-1,2,3,4-tetrahydroisoquinolin-6-yl)butanoic acid] | 533 |
| CC(Cc1ccc2c(c1F)CCN(c1cc(OC(F)(F)F)cc(Cl)c1F)C2)C(=O)O (single isomer, unassigned) [Example 69, 3-{2-[3-chloro-2-fluoro-5-(trifluoromethoxy)phenyl]-5-fluoro-1,2,3,4-tetrahydroisoquinolin-6-yl}-2-methyl-propanoic acid] | 231 |
| CC1c2ccc(CCC(=O)O)cc2CCN1c1cc(OC2CCC2)ccc1F (stereo not shown) [Example 36, 3-{2-[5-(cyclobutyloxy)-2-fluorophenyl]-1-methyl-1,2,3,4-tetrahydroisoquinolin-6-yl}propanoic acid] | 348 |
| CO[C@H]1C[C@H](Oc2cc(F)c(F)c(N3CCc4c(ccc([C@H]5C[C@@H]5C(=O)O)c4F)C3)c2)C1 [Example 106, (1 S,2S)-2-(2-(2,3-difluoro-5-((1 r,3S)-3-methoxycyclobutoxy)phenyl)-5-fluoro-1,2,3,4-tetra-hydroisoquinolin-6-yl)cyclopropanecarboxylic acid] | 83 |
| O=C(O)CCc1ccc2c(c1)CCN(Cc1c(-c3ccc(Cl)cc3)nsc1C(F)(F)F)C2 [Example 50, 3-(2-{[3-(4-chlorophenyl)-5-(trifluoromethyl)isothiazol-4-yl]methyl}-1,2,3,4-tetrahydroiso-quinolin-6-yl)propanoic acid] | 348 |
| O=C(O)CCc1ccc2c(c1)CCN(c1cc(OC3CCC3)cc(Cl)c1F)C2 [Example 54, 3-{2-[3-chloro-5-(cyclobutyloxy)-2-fluorophenyl]-1,2,3,4-tetrahydro-isoquinolin-6-yl}propanoic acid] | 1680 |
| O=C(O)CCc1cc2c(cc1F)CN(c1cc(OC(F)(F)F)ccc1F)CC2 [Example 30, 3-{7-fluoro-2-[2-fluoro-5-(trifluoromethoxy)phenyl]-1,2,3,4-tetrahydroisoquinolin-6-yl}-propanoic acid] | 134 |
| O=C(O)CCc1ccc2c(c1)CCN(c1cc(OC3CCC3)cc(F)c1F)C2 [Example 11, 3-{2-[5-(cyclobutyloxy)-2,3-difluorophenyl]-1,2,3,4-tetrahydro-isoquinolin-6-yl}propanoic acid] | 15 |
| O=C(O)[C@@H]1C[C@H]1c1ccc2c(c1)CCN(c1cc(OC3CCC3)cc(F)c1F)C2 [Example 85, (1R,2R)-2-{2-[5-(cyclobutyloxy)-2,3-difluorophenyl]-1,2,3,4-tetra-hydroisoquinolin-6-yl}cyclo-propane-carboxylic acid] | 40 |
| O=C(O)CCc1ccc2c(c1)CCN(c1cc(Oc3ccccn3)cc(C(F)F)c1F)C2 [Example 2, 3-(2-(3-(difluoromethyl)-2-fluoro-5-(pyridin-2-yloxy)phenyl)-1,2,3,4-tetrahydro-isoquinolin-6-yl)propanoic acid] | 17 |

Now from value to compound:

| EC50 [nM] | Structure (SMILES) |
| --- | --- |
| 32 | O=C(O)[C@@H]1C[C@H]1c1ccc2c(c1F)CCN(c1cc(OC(F)(F)F)cc(Cl)c1F)C2 [Example 111, (1R,2R)-2-{2-[3-chloro-2-fluoro-5-(trifluoromethoxy)-phenyl]-5-fluoro-1,2,3,4-tetrahydroisoquinolin-6-yl}cyclo-propanecarboxylic acid] |
| 395 | Cc1ccc(-n2nc(C)c(F)c2CN2CCc3cc(CCC(=O)O)ccc3C2)cc1 [Example 143, 3-(2-{[4-fluoro-3-methyl-1-(4-methylphenyl)-1H-pyrazol-5-yl]methyl}-1,2,3,4-tetrahydroisoquinolin-6-yl)propanoic acid] |
| 4300 | Cc1ccc(-n2nc(C)c(C#N)c2N2CCc3cc(OCCCO)ccc3C2)cc1 [Example 144, 5-[6-(3-hydroxypropoxy)-3,4-dihydroisoquinolin-2(1H)-yl]-3-methyl-1-(4-methylphenyl)-1H-pyrazole-4-carbonitrile] |
| 15 | Cc1c(CCC(=O)O)ccc2c1CCN(c1cc(OC3CCC3)cc(F)c1C#N)C2 [Example 157, 3-{2-[2-cyano-5-(cyclobutyloxy) 3-fluorophenyl]-5-methyl-1,2,3,4-tetrahydroisoquinolin-6-yl}-propanoic acid] |
| 16 | N#Cc1c(Cl)cc(OC2CCC2)cc1N1CCc2c(ccc(CCC(=O)O)c2F)C1 [Example 150, 3-{2-[3-chloro-2-cyano-5-(cyclobutyloxy)phenyl]-5-fluoro-1,2,3,4-tetrahydroisoquinolin-6-yl} propanoic acid] |
| 350 | O=C(O)[C@H]1C[C@@H]1c1ccc2c(c1)CCN(Cc1cc(C(F)(F)F)cc(Cl)c1F)C2 [Example 93, (1S,2S)-2-{2-[3-chloro-2-fluoro-5-(trifluoromethyl)benzyl]-1,2,3,4-tetrahydroisoquinolin-6-yl} cyclopropanecarboxylic acid] |
| 92 | Cc1ccc(-n2nc(C)c(C#N)c2N2CCc3cc(O)ccc3C2)cc1 [Example 129, 5-(6-hydroxy-3,4-dihydroisoquinolin-2(1H)-yl)-3-methyl-1-(p-tolyl)-1H-pyrazole-4-carbonitrile] |
| 110 | O=C(O)[C@H]1C[C@@H]1c1ccc2c(c1)CCN(c1cc(OC(F)(F)F)ccc1F)C2 [Example 88, (1S,2S)-2-{2-[2-fluoro-5-(trifluoro-methoxy)phenyl]-1,2,3,4-tetra hydroisoquinolin-6-yl}cyclo-propane carboxylic acid] |
| 34 | Cc1nc(N2CCc3c(ccc(CCC(=O)O)c3F)C2)nc(OC2CCC2)c1C#N [Example 151, 3-{2-[5-cyano-4-(cyclobutyloxy)-6-methylpyrimidin-2-yl]-5-fluoro-1,2,3,4-tetrahydroisoquino-lin-6-yl}propanoic acid] |
| 414 | O=C(O)[C@H]1C[C@@H]1c1ccc2c(c1F)CCN(c1cc(OC3CCC3)cc(Cl)c1F)C2 [Example 125, (1S,2S)-2-{2-[3-chloro-5-(cyclobutyloxy)-2-fluorophenyl]-5-fluoro-1,2,3,4-tetrahydroisoquinolin-6-yl}cyclopropane-carboxylic acid] |
